Source: US20250382298A1, “NITROGEN-CONTAINING COMPOUND AND USE THEREOF” (SUZHOU GENHOUSE BIO CO., LTD., priority 2022, published 2025)

How the values were obtained:
OVCAR3 cells = assay: Detection of cell proliferation activity by CCK8 method (OVCAR3); type: cell-based; conditions: Homo sapiens, OVCAR-3, CCK8, 96 h
Description: (§1) This assay can be used to examine the potency of compounds in inhibiting the proliferation of tumor cells (OVCAR3, HT-29, BT-549, HCT-116). A lower IC50 value indicates high potency of the compound as a KIF18A inhibitor in the following assay setup,
(§2) McCoy's 5A medium purchased from Sangon Biotech; CCK8 kit purchased from Beyotime; OVCAR3, HT-29, HCT-116, and BT-549 cells purchased from Shanghai Fuheng Biotechnology Co., Ltd.; multimode microplate reader (Thermo).
(§3) Cells at the logarithmic growth phase were taken, digested with a cell lysis buffer (trypsin), centrifuged, counted, and seeded into a 96-well plate at an appropriate cell density (BT549: 1500 cells/well in 1640 medium. HT-29 and HCT-116: 2000 cells/well in McCoy's 5A medium), with 180 μL per well, for a total of 60 wells. The surrounding wells were filled with an equal amount of PBS to prevent water evaporation from the edge wells. The next day after cell plating, the test compounds at different concentration gradients (with an initial final concentration of 10 μM, diluted in a 1:5 gradient to obtain 9 concentration gradients) were added to the wells. Three replicate wells were set up for each concentration point, and a corresponding DMSO negative control group was also set up. Detection: After 96 h of drug treatment, the test cell culture plate was removed from the incubator. All the liquid in the 96-well plate was aspirated, and 100 μL of medium containing 10% CCK8 solution was added to each well. The plate was then incubated at 37° C. for 2 h (the OD450 of the DMSO group reached 1.5 or more), and the absorbance at 450 nm was measured using a microplate reader
(§4) After the background value was subtracted from the measurement for each well, the inhibition rate was calculated. Inhibition Rate (%)=(1−Sample/Vehicle)×100. Sample is the luminescence value of the drug treatment group, and Vehicle is the luminescence value of the DMSO control group. A sigmoidal dose-survival rate curve was plotted using a non-linear regression model in the GraphPad Prism 7.0 software, and the IC50 values were calculated.

HT-29 cells [1] = assay: Mitotic index analysis, pH3 expression in HT-29 cells; type: cell-based, human; conditions: Homo sapiens, 24 h treatment
Procedure: (§5) HCT-116 and HT-29 cells at the logarithmic growth phase were taken, digested with a cell lysis buffer (trypsin), centrifuged, counted, and seeded into a 96-well plate at an appropriate cell density (20000 cells/well), with 100 μL per well. The surrounding wells were filled with an appropriate amount of PBS to prevent water evaporation. The next day, the cells were treated with the compounds at different concentrations (with a starting concentration of 10 μM, 3-fold diluted to obtain 9 concentration gradients). After 24 h, the medium was aspirated, and the cells were washed twice with 100 μL of PBS. The cells were then fixed with 4% paraformaldehyde and incubated at room temperature for 15 min. The fixative solution was discarded, and the cells were washed with PBS. Then, 150 μL of specialized blocking solution (containing 1% Triton-100) was added to each well for blocking at room temperature for 2 h, and the plate was washed with PBS to remove excess blocking solution. Anti-phistone H3 (pH3) was diluted at a ratio of 1:1000 with a blocking solution containing 0.033% Triton-100, and a blank control group was set up. Then, incubation was performed at 4° C. overnight. The next day, the plate was washed twice with 1×PBST. Anti-rabbit-IgG (H+L) (CST) and DRAQ5 (Thermofisher) were each diluted at an appropriate ratio with a blocking solution containing 0.033% Triton-100 (secondary antibody: 1:2000; DRAQ5: 1:10000). Then, incubation was performed at room temperature for 2 h. The plate was washed twice with 1×PBST and once with PBS. Fluorescence signals at 700 nm and 800 nm were detected using a Li—COR Odyssey two-color near-infrared laser imager. Calculation was performed as follows: pH3 expression (%)=(Cmpd dose/DMSO control)×100. Cmpd dose is the value of the drug treatment group, and DMSO control is the value of the DMSO control group. The EC50 values were determined by fitting using the GraphPad Prism 7.0 software.

BT-549 cells = assay: Detection of cell proliferation activity by CCK8 method (BT-549); type: cell-based; conditions: Homo sapiens, CCK8, 96 h
Description: as §1, §2, §3, §4

HCT-116 cells [2] = assay: Detection of cell proliferation activity by CCK8 method (HCT-116); type: cell-based; conditions: Homo sapiens, CCK8, 96 h
Description: as §1, §2, §3, §4

HCT-116 cells [3] = assay: Mitotic index analysis, pH3 expression in HCT-116 cells; type: cell-based; conditions: Homo sapiens, 24 h treatment
Procedure: as §5

HT-29 cells [4] = assay: Detection of cell proliferation activity by CCK8 method (HT-29); type: cell-based, human; conditions: Homo sapiens, CCK8, 96 h
Description: as §1, §2, §3, §4

Row | Structure (SMILES) | IC50 (OVCAR3 cells) [µM] | EC50 (HT-29 cells [1]) [µM] | IC50 (BT-549 cells) [µM] | IC50 (HCT-116 cells [2]) [µM] | EC50 (HCT-116 cells [3]) [µM] | IC50 (HT-29 cells [4]) [µM]
1 | Cc1cnc2c(N3CCC(F)(F)CC3)nc(NC(=O)c3ccc(NS(=O)(=O)CCO)cc3N3CCC4(CC3)CC4)cn12 [Compound 42] | 0.0832 | 0.255 | 0.304 | > 10 | > 10 | 0.229
2 | CC1(C)C2CN(c3cc(NS(=O)(=O)CCO)ccc3C(=O)Nc3cn4ccnc4c(N4CCC(F)(F)CC4)n3)CC21 (stereo not drawn) [Compound 20] | 0.117 | 0.434 | 0.736 | > 10 | > 10 | 0.518
3 | O=C(Nc1cn2c(C(F)(F)F)cnc2c(N2CCC(F)(F)CC2)n1)c1ccc(NS(=O)(=O)CCO)cc1N1CCC2(CC1)CC2 [Compound 35] | 1.85 |  |  | > 10 | > 10 | 
4 | Cc1cc(NC(=O)c2ccc(NS(=O)(=O)CCO)cc2N2Cc3ccccc3C2)nc(N2CCC(F)(F)CC2)n1 [Compound 44] | 0.733 |  | 1.9 | > 10 | > 10 | 1.64
5 | Cn1ncc2cc(NC(=O)c3ccc(NS(C)(=O)=O)cc3N3CCC4(CC3)CC4)nc(N3CCC(F)(F)CC3)c21 [Compound 48] | 0.0122 | 0.0122 | 0.0263 | > 10 | > 10 | 0.0171
6 | O=C(Nc1cc2nccnc2c(N2CCC(F)(F)CC2)n1)c1ccc(NS(=O)(=O)CCO)cc1N1CCC2(CC1)CC2 [Compound 39] | 0.0101 |  | 0.0266 | > 10 | > 10 | 0.0281
7 | CS(=O)(=O)Nc1ccc(C(=O)Nc2cn3c(F)cnc3c(N3CCC(F)(F)CC3)n2)c(N2CCC3(CC2)CC3)c1 [Compound 46] | 0.0348 | 0.053 | 0.0758 | > 10 | > 10 | 0.0556
8 | CS(=O)(=O)Nc1ccc(C(=O)Nc2cc3ccsc3c(N3CCC(F)(F)CC3)n2)c(N2CCC3(CC2)CC3)c1 [Compound 45] | 0.0543 | 0.0808 | 0.17 | > 10 | > 10 | 0.094
9 | O=S(=O)(CCO)Nc1cc(N2CCC3(CC2)CC3)c2c(Nc3cn4ccnc4c(N4CCC(F)(F)CC4)n3)ncnc2c1 [Compound 43] | 0.0234 | 0.03 | 0.0652 | > 10 | > 10 | 0.0946
10 | O=C(Nc1cn2cc(C(F)(F)F)nc2c(N2CCC(F)(F)CC2)n1)c1ccc(NS(=O)(=O)CCO)cc1N1CCC2(CC1)CC2 [Compound 36] | 0.283 |  | 1.6 | > 10 | > 10 | 0.52

The next lines start with the values.

Row | IC50 (OVCAR3 cells) [µM] | EC50 (HT-29 cells [1]) [µM] | IC50 (BT-549 cells) [µM] | IC50 (HCT-116 cells [2]) [µM] | EC50 (HCT-116 cells [3]) [µM] | IC50 (HT-29 cells [4]) [µM] | Structure (SMILES)
11 | 0.0479 |  | 0.156 |  |  | 0.0824 | CS(=O)(=O)c1ccc(C(=O)Nc2cn3ccnc3c(N3CCC(F)(F)CC3)n2)c(N2CCC3(CC2)CC3)c1 [Compound 74]
12 | 0.0232 | 0.0526 | 0.0309 | > 10 | > 10 | 0.0596 | CS(=O)(=O)Nc1ccc(C(=O)Nc2cn3cnnc3c(N3CCC(F)(F)CC3)n2)c(N2CCC3(CC2)CC3)c1 [Compound 61]
13 | 0.0632 | 0.124 | 0.24 | > 10 | > 10 | 0.144 | CS(=O)(=O)Nc1ccc(C(=O)Nc2cn3cncc3c(N3CCC(F)(F)CC3)n2)c(N2CC3CCC(C3)C2)c1 [Compound 60]
14 | 0.0102 | 0.0268 | 0.0424 | > 10 | > 10 | 0.0552 | O=C(Nc1cn2cnnc2c(N2CCC(F)(F)CC2)n1)c1ccc(NS(=O)(=O)CCO)cc1N1CC2CCC(C2)C1 [Compound 64]
15 | 0.0519 | 0.0315 | 0.175 | > 10 | > 10 | 0.0555 | O=C(Nc1cc2ccsc2c(N2CCC(F)(F)CC2)n1)c1ccc(NS(=O)(=O)CCO)cc1N1CC2CCC(C2)C1 [Compound 50]
16 | 0.0275 | 0.0491 | 0.083 | > 10 | > 10 | 0.0816 | O=C(Nc1cn2cncc2c(N2CCC(F)(F)CC2)n1)c1ccc(NS(=O)(=O)CCO)cc1N1CC2CCC(C2)C1 [Compound 59]
17 | 0.005 | 0.0078 | 0.0397 | > 10 | > 10 | 0.0174 | O=C(Nc1cc2cn[nH]c2c(N2CCC(F)(F)CC2)n1)c1ccc(NS(=O)(=O)CCO)cc1N1CC2CCC(C2)C1 [Compound 71]
18 | 0.006 | 0.0077 | 0.0231 | > 10 | > 10 | 0.0151 | O=C(Nc1cc2cc[nH]c2c(N2CCC(F)(F)CC2)n1)c1ccc(NS(=O)(=O)CCO)cc1N1CC2CCC(C2)C1 [Compound 62]
19 | 0.0117 | 0.0108 | 0.0547 | > 10 | > 10 | 0.0267 | O=C(Nc1cn2ncnc2c(N2CCC(F)(F)CC2)n1)c1ccc(NS(=O)(=O)CCO)cc1N1CC2CCC(C2)C1 [Compound 54]
20 | 0.0379 | 0.119 | 0.0904 | > 10 | > 10 | 0.0971 | CS(=O)(=O)Nc1ccc(C(=O)Nc2cn3cncc3c(N3CCC(F)(F)CC3)n2)c(N2CCC3(CC2)CC3)c1 [Compound 58]
21 | 0.0186 | 0.0345 | 0.0901 | > 10 | > 10 | 0.0715 | CS(=O)(=O)Nc1ccc(C(=O)Nc2cc3nn[nH]c3c(N3CCC(F)(F)CC3)n2)c(N2CC3CCC(C3)C2)c1 [Compound 66]
